Results reported in patent US9144557B2, “Hematopoietic growth factor mimetic small molecule compounds and their uses” (Ligand Pharmaceuticals Inc., priority 2009, dated 2015).

Each compound was assayed on UT7/EPO Cell line (assay: Cell Proliferation Assay (UT7/EPO, ViaLight Plus)). Conditions: proliferative effect; compounds at 10 uM; UT7/EPO cells starved of EPO overnight; 72 hours at 37° C.; ViaLight Plus kit.
Format: cell-based, human
Description: The primary testing for the examplfied compounds was performed in UT7/EPO Cell line. UT7/EPO is human leukemia cell line, obtained from Dr. Norio Komatsu (Blood, Vol 82 (2), pp 456-464, 1993). These cells express endogenous EPO receptor and are dependant upon EPO for growth and proliferation. Briefly, the cells were starved of EPO overnight and plated in 96 or 384 well plates. The compounds were added to the cells at 10 uM concentration. The plates were then incubated at 37° C. for 72 hours. The proliferative effect of the compounds was measured by a commercially available kit from Lonza (ViaLight Plus).
With CN1CCN(C(=O)Nc2ccc(-n3ncc4cc(NC(=O)c5ccc(N6CCOCC6)cc5)ccc43)cc2)CC1 [Compound 550, 4-Methyl-N-(4-(5-(4-morpholinobenzamido)-1H-indazol-1-yl)phenyl)piperazine-1-carboxamide] the “Activity (%)” value was 9%. With O=C(Nc1ccc(C(=O)c2ccc(NC(=O)c3ccc(N(CCO)CCO)cc3)cc2)cc1)c1ccc(N(CCO)CCO)cc1 [Compound 327, N,N′-(carbonylbis(4,1-phenylene))bis(4-(bis(2-hydroxyethyl)amino)benzamide)] the “Activity (%)” value was 17%. O=C(O)CNC(=O)Cn1ccc2cc(NC(=O)c3ccc(-n4ccc5cc(NC(=O)c6ccc(N7CCC(O)CC7)cc6)ccc54)cc3)ccc21 [Compound 975] was tested, and the “Activity (%)” value was 17%. In the case of COC(=O)c1ccc(C(=O)Nc2ccc3[nH]c(-c4ccc(OC)cc4)nc3c2)cc1 [Compound 1739, Methyl 4-(2-(4-methoxyphenyl)-1H-benzimidazol-5-ylcarbamoyl)-benzoate], the “Activity (%)” value is reported as 19%. In the case of O=C(Nc1ccc(C(=O)c2ccc(NC(=O)c3c[nH]nn3)cc2)cc1)c1ccc(N2CCOCC2)cc1 [Compound 610, 4-Morpholino-N-(4-(4-(1,2,3-triazole-4-carboxamido)benzoyl)phenyl)benzamide], the “Activity (%)” value is reported as 14%. In the case of CN(C)c1ccc(C(=O)Nc2ccc(C(O)c3ccc(NC(=O)c4ccc(N(C)C)cc4)cc3)cc2)cc1 [Compound 305, N,N′-((hydroxymethylene)bis(4,1-phenylene))bis(4-(dimethylamino)benzamide)], the “Activity (%)” value is reported as 18%. For O=C(Nc1ccc2[nH]c(-c3cccc(-c4nc5cc(NC(=O)c6ccc(N7CCCC7)cc6)ccc5[nH]4)c3)nc2c1)c1ccc(N2CCCC2)cc1 [Compound 268, N,N′-(2,2′-(1,3-phenylene)bis(1H-benzo[d]imidazole-5,2-diyl))bis(4-(pyrrolidin-1-yl)benzamide)], the “Activity (%)” value was 15%. For COc1ccc(/C=N/NC(=O)c2ccc(N(C)C)cc2)cc1/C=N/NC(=O)c1ccc(N(C)C)cc1 [Compound 106, (N′,N′″E,N′,N′″E)-N′,N′″-((4-methoxy-1,3-phenylene)bis(methanylylidene))bis(4-(dimethylamino)benzohydrazide)], the “Activity (%)” value was 14%. In the case of CN(CCO)c1ccc(C(=O)Nc2ccc3[nH]c(-c4ccc(C(=O)NC5CC5)cc4)nc3c2)cc1 [Compound 235, N-cyclopropyl-4-(5-(4-((2-hydroxyethyl)(methyl)amino)benzamido)-1H-benzo[d]imidazol-2-yl)benzamide], the “Activity (%)” value is reported as 15%. With CN(C)c1cccc(/C=N/NC(=O)c2ccc(C(=O)NCCC(=O)NCCO)cc2)c1 [Compound 149, (E)-4-(2-(3-(dimethylamino)benzylidene)hydrazinecarbonyl)-N-(3-((2-hydroxyethyl)amino)-3-oxopropyl)benzamide] the “Activity (%)” value was 22%. In the case of N#Cc1cc(NC(=O)c2ccc(N3CCC(C(F)(F)F)CC3)cc2)ccc1Nc1ccc(NC(=O)c2cc[nH]c2)cc1 [Compound 885, N-(4-((2-Cyano-4-(4-(4-trifluoromethylpiperidin-1-yl)benzamido)phenyl)amino)phenyl)-1H-pyrrole-3-carboxamide], the “Activity (%)” value is reported as 21%. Cn1cccc1C(=O)Nc1ccc(N(C(=O)c2cccn2C)c2ccc(NC(=O)c3ccc(N4CCC(O)CC4)cc3)cc2)cc1 [Compound 745] was tested, and the “Activity (%)” value was 17%. In the case of COc1cccc(/C=N/NC(=O)c2ccc3c(ccn3CCCC(=O)Nc3cccc(N(C)C)c3)c2)c1 [Compound 156, (E)-N-(3-(dimethylamino)phenyl)-4-(5-(2-(3-methoxybenzylidene)hydrazinecarbonyl)-1H-indol-1-yl)butanamide], the “Activity (%)” value is reported as 21%. With O=C(C1CC1)N1CCN(c2ccc(-c3nc4ccc(-c5ccc(O)cc5)cc4[nH]3)cc2)CC1 [Compound 680, Cyclopropyl(4-(4-(6-(4-hydroxyphenyl)-1H-benzo[d]imidazol-2-yl)phenyl)piperazin-1-yl)methanone] the “Activity (%)” value was 10%. For O=C(Nc1ccc(N2CCOCC2)cc1)c1ccc(-c2nc3ccccc3[nH]2)cc1 [Compound 458, 4-(1H-Benzimidazol-2-yl)-N-(4-morpholinophenyl)benzamide], the “Activity (%)” value was 10%. For O=C(Nc1ccc(N2CCNCC2)cc1)c1ccc(-c2nc3cc(NC(=O)c4ccc(N5CCNCC5)cc4)ccc3[nH]2)cc1 [Compound 251, 4-(piperazin-1-yl)-N-(2-(4-((4-(piperazin-1-yl)phenyl)carbamoyl)phenyl)-1H-benzo[d]imidazol-5-yl)benzamide], the “Activity (%)” value was 14%. In the case of O=C(Nc1ccc(C(=O)c2ccc(NC(=O)c3ccc[nH]3)cc2)cc1)c1ccc(N2CCCC(CO)C2)cc1 (racemic) [Compound 700, (±)-N-(4-(4-(4-(3-(Hydroxymethyl)piperidin-1-yl)benzamido)benzoyl)phenyl)-1H-pyrrole-2-carboxamide], the “Activity (%)” value is reported as 14%. With O=C(N/N=C/c1cccc(/C=N/NC(=O)c2ccc(N(CC(F)(F)F)CC(F)(F)F)cc2)c1)c1ccc(N(CC(F)(F)F)CC(F)(F)F)cc1 [Compound 115, (N′,N′″E,N′,N′″E)-N′,N′″-(1,3-phenylenebis(methanylylidene))bis(4-(bis(2,2,2-trifluoroethyl)amino)benzohydrazide)] the “Activity (%)” value was 22%. With Cn1ccc(C(=O)Nc2ccc(-n3cc(C4CC4)c4cc(NC(=O)c5ccc(N6CCC(O)CC6)cc5)ccc43)cc2)c1 [Compound 1070, N-(4-(3-cyclopropyl-5-(4-(4-hydroxypiperidin-1-yl)benzamido)-1H-indol-1-yl)phenyl)-1-methyl-1H-pyrrole-3-carboxamide] the “Activity (%)” value was 15%. With O=C(Nc1ccc2c(c1)ncn2-c1ccc(NC(=O)C2CC2)cc1)c1ccc(N2CCC(O)CC2)cc1 [Compound 560, N-(4-(5-(4-(4-Hydroxypiperidin-1-yl)benzamido)-1H-benzimidazol-1-yl)phenyl)cyclopropylcarboxamide] the “Activity (%)” value was 14%. With Cn1cccc1C(=O)Nc1ccc(Nc2ccc(NC(=O)c3ccc(N4CCC(CO)CC4)cc3)cc2)cc1 [Compound 800, N-(4-((4-(4-(4-Hydroxymethylpiperidin-1-yl)benzamido)phenyl)amino)phenyl)-1-methyl-1H-pyrrole-2-carboxamide] the “Activity (%)” value was 23%. With CN(C)c1ccc(C(=O)Nc2ccc3[nH]c(-c4ccc(-c5ccc(N(C)C)cc5)cc4)nc3c2)cc1 [Compound 220, 4-(dimethylamino)-N-(2-(4′-(dimethylamino)-[1,1′-biphenyl]-4-yl)-1H-benzo[d]imidazol-5-yl)benzamide] the “Activity (%)” value was 19%. With O=C(Nc1ccccc1)c1ccc(-c2nc3cc(NC(=O)c4ccccc4)ccc3[nH]2)cc1 [Compound 1747, N-Phenyl-4-(5-benzamido-1H-benzimidazol-2-yl)benzamide] the “Activity (%)” value was 19%. In the case of CN(C)c1ccc(C(=O)N/N=C/c2cc(/C=N/NC(=O)c3ccc(N(C)C)cc3)cc(NCCO)c2)cc1 [Compound 135, (N′,N′″E,N′,N′″E)-N′,N′″-((5-((2-hydroxyethyl)amino)-1,3-phenylene)bis(methanylylidene))bis(4-(dimethylamino)benzohydrazide)], the “Activity (%)” value is reported as 16%. With CON=C(c1ccc(NC(=O)c2ccc(N3CCN(C(=O)C4CC4)CC3)cc2)cc1)c1ccc(NC(=O)c2ccc(N3CCN(C(=O)C4CC4)CC3)cc2)cc1 [Compound 338, N,N′-(((methoxyimino)methylene)bis(4,1-phenylene))bis(4-(4-(cyclopropanecarbonyl)piperazin-1-yl)benzamide)] the “Activity (%)” value was 19%. In the case of Nc1ccc(C(=O)Nc2ccc(-c3nc4c(Cl)c(NC(=O)c5ccc(N)cc5)ccc4[nH]3)cc2)cc1 [Compound 1715, 4-Amino-N-(4-(5-(4-aminobenzamido)-4-chloro-1H-benzimidazol-2-yl)phenyl)benzamide], the “Activity (%)” value is reported as 10%. For COc1ccc(-c2cc(NC(=O)c3ccc(C(=O)Nc4cc(-c5ccc(OC)cc5)[nH]n4)cc3)n[nH]2)cc1 [Compound 473, N,N′-bis(5-(4-Methoxyphenyl)-1H-pyrazol-3-yl)terephthalamide], the “Activity (%)” value was 11%. COc1cc(/C=N/NC(=O)c2ccc(C(=O)NCCC(=O)NCCO)cc2)ccc1O [Compound 146, (E)-4-(2-(4-hydroxy-3-methoxybenzylidene)hydrazinecarbonyl)-N-(3-((2-hydroxyethyl)amino)-3-oxopropyl)benzamide] was tested, and the “Activity (%)” value was 19%. With CN(C)c1ccc(-c2nc3cc(C(=O)Nc4ccc(NC(=O)c5ccc6[nH]c(-c7ccc(N(C)C)cc7)nc6c5)cc4)ccc3[nH]2)cc1 [Compound 283, N,N′-(1,4-phenylene)bis(2-(4-(dimethylamino)phenyl)-1H-benzo[d]imidazole-5-carboxamide)] the “Activity (%)” value was 19%. With C=CCOc1cc(/C=N/NC(=O)c2ccc(N(C)C)cc2)cc(/C=N/NC(=O)c2ccc(N(C)C)cc2)c1 [Compound 113, (N′,N′″E,N′,N′″E)-N′,N′″-((5-(allyloxy)-1,3-phenylene)bis(methanylylidene))bis(4-(dimethylamino)benzohydrazide)] the “Activity (%)” value was 17%. In the case of COc1ccc(C(=O)Nc2ccc3[nH]c(-c4ccc(N5CCCC5)cc4)nc3c2)cc1 [Compound 177, 4-Methoxy-N-(2-(4-(pyrrolidin-1-yl)phenyl)-1H-benzo[d]imidazol-5-yl)benzamide], the “Activity (%)” value is reported as 15%. O=C(Nc1ccc2[nH]c(-c3ccc(N4CCOCC4)cc3)nc2c1)C(=O)Nc1ccc2nc(-c3ccc(N4CCOCC4)cc3)[nH]c2c1 [Compound 434, N,N′-bis-(2-(4-Morpholinophenyl)-1H-benzimidazol-5-yl)oxalamide] was tested, and the “Activity (%)” value was 15%. In the case of Cn1ccc2cc(C(=O)Nc3ccc4c(cnn4-c4ccc(NC(=O)C5CC5)cc4)c3)ccc21 [Compound 930, N-(1-(4-(Cyclopropanecarboxamido)phenyl)-1H-indazol-5-yl)-1-methyl-1H-indole-5-carboxamide], the “Activity (%)” value is reported as 12%.
